Measurements as given in PubChem BioAssay (NCI).
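Cells were grown in 96-well plates and exposed to each compound for 48 hours at five concentrations; endpoints were interpolated linearly between bracketing concentrations, or set to the highest concentration if not reached. Definition used: TGI = concentration required for complete inhibition of growth.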

Key:
Experiment in all cases: NCI tumour cell line growth inhibition, 48 h
[1] = system: UACC-257 melanoma
[2] = system: RPMI-8226 leukemia
[3] = system: CCRF-CEM leukemia
[4] = system: COLO 205 colon
[5] = system: CAKI-1 renal
[6] = system: K-562 leukemia
[7] = system: MDA-MB-231 breast
[8] = system: SF-268 CNS
[9] = system: 786-0 renal
[10] = system: HCC-2998 colon
[11] = system: M14 melanoma
[12] = system: RXF 393 renal
[13] = system: PC-3 prostate
[14] = system: NCI/ADR-RES ovarian
[15] = system: OVCAR-8 ovarian
[16] = system: HOP-92 NSCLC
[17] = system: HT29 colon
[18] = system: NCI-H23 lung
[19] = system: EKVX NSCLC
[20] = system: OVCAR-5 ovarian
[21] = system: MDA-MB-435
[22] = system: SK-MEL-2 melanoma
[23] = system: NCI-H522 lung
[24] = system: HCT-15 colon
[25] = system: SK-MEL-5 melanoma
[26] = system: UACC-62 melanoma
[27] = system: NCI-H226 lung
[28] = system: SK-OV-3 ovarian
[29] = system: LOX IMVI melanoma
[30] = system: SF-295 CNS
[31] = system: SW-620 colon
[32] = system: HS 578T breast
[33] = system: SK-MEL-28 melanoma
[34] = system: HCT-116 colon
[35] = system: T-47D breast
[36] = system: DU-145 prostate
[37] = system: MOLT-4 leukemia
[38] = system: A549 NSCLC
[39] = system: ACHN renal
[40] = system: TK-10 renal
[41] = system: OVCAR-3 ovarian
[42] = system: HOP-62 NSCLC
[43] = system: U251 CNS
[44] = system: BT-549 breast
[45] = system: MALME-3M melanoma
[46] = system: SNB-75 CNS
[47] = system: UO-31 renal
[48] = system: KM12 colon
[49] = system: NCI-H460 lung
[50] = system: A498 renal
[51] = system: SNB-19 CNS
[52] = system: IGROV1 ovarian
[53] = system: OVCAR-4 ovarian

Measured: TGI

CCOP(=O)(OCC)C(Nc1ccc(C(=O)O)cc1)c1ccc(C(Nc2ccc(C(=O)O)cc2)P(=O)(OCC)OCC)cc1 (stereo not drawn)
> 100 µM: all assays above
